Earlier results, collected in US20090214716A1 (priority 2005, published 2009).

Key:
[1] = target: T1, A2A receptors that are located on the platelet surface (Homo sapiens, UniProt P29274); conditions: chronic caffeine consumption
T1 construct: up-regulation of endogenous adenosine receptors in normal subjects; host or cells: human platelets of normal subjects (endogenous)

[2] = caffeine 0.3 mg/kg/hr vs placebo

T1 sequence (P29274 whole entry): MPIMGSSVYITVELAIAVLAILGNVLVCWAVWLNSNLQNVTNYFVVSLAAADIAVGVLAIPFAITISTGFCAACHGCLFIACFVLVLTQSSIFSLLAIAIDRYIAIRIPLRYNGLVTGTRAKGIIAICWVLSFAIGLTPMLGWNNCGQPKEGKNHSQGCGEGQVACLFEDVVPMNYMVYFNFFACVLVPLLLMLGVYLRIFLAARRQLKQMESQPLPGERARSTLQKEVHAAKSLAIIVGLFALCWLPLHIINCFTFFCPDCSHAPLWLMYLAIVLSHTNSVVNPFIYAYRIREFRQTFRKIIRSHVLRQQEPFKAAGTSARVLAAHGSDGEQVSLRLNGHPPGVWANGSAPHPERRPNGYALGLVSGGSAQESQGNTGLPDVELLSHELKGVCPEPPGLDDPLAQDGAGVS

Q: For Cn1c(=O)c2c(ncn2C)n(C)c1=O [caffeine, 1,3,7-trimethylxanthine], which platelet aggregability [1] is on record?
A: reduction in platelet aggregability

Q: And the “effect on endogenous adenosine receptors” value ([1]; normal subjects)?
A: sensitization and/or up-regulation of endogenous adenosine receptors

Q: What about the “performance on cognitive tests” value [2] of the same molecule?
A: performed better on cognitive tests

Q: And the reported sleepiness [2]?
A: reported feeling sleepier than their placebo counterparts
